# Laboratory results as given in patent US4570006A, “Amidine compound, process for producing same and anti-complement agent comprising same” (Torii & Co. Ltd., priority 1981, dated 1986).
# Read-outs that look alike come from different tables or passages of the source.
# Assays:
# Trypsin = molecular target: T1, Trypsin (Bos taurus, UniProt P00760); test: Anti-trypsin activity (inhibition of TAME hydrolysis); format: biochemical; settings: read-out: ID50, trypsin
# T1 sequence (P00760 24-246): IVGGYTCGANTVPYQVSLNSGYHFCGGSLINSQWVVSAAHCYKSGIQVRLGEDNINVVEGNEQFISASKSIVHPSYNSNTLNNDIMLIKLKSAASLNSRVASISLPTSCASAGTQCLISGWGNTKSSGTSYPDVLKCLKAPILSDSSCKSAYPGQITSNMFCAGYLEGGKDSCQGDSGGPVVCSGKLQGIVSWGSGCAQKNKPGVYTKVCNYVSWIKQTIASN
# Experimental: (§1) The anti-trypsin, anti-plasmin, anti-kallikrein and anti-thrombin activities were determined according to the method of Muramatsu et al. [M. Muramatsu, T. Onishi, S. Makino, Y. Hayashi and S. Fujii, J. of Biochem., 58, 214 (1965)]. The data summarized in Table 1 are expressed in terms of molar concentration (ID50) of the test compound which inhibits 50% of the activity of each enzyme to hydrolyze TAME (tosylarginine methyl ester). The compound No. corresponds to the compound number shown in Examples.
# Kallikrein = test: Anti-kallikrein activity (inhibition of TAME hydrolysis); format: biochemical; settings: read-out: ID50, kallikrein
# Experimental: as §1
# Clr = molecular target: T2, Clr (Homo sapiens, UniProt P00736); test: Anti-Cl esterase activity, Clr (AAME hydrolysis); format: biochemical; settings: hydrolysis of AAME; read-out: Anti-Cl activity, Clr (ID50)
# T2 sequence (P00736 464-705 limits assumed): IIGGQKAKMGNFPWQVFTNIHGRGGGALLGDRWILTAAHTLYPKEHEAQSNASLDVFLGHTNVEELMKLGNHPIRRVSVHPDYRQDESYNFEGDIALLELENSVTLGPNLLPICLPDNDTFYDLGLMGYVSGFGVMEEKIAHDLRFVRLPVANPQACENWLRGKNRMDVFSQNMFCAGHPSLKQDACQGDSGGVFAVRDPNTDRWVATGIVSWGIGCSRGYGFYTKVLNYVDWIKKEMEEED
# T2 sequence (P00736 18-463 limits assumed): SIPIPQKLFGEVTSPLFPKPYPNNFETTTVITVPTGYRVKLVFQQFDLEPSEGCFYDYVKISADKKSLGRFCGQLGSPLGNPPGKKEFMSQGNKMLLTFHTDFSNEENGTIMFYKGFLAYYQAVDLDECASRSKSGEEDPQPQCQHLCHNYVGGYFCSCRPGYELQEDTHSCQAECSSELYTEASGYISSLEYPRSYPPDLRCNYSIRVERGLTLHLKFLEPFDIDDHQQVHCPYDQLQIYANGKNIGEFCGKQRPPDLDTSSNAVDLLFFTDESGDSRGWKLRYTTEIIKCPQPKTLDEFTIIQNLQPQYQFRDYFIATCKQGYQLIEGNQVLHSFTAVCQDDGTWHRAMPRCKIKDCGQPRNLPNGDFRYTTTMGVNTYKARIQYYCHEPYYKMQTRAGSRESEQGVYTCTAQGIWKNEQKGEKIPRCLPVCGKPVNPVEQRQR
# Experimental: The anti-Cl esterase ([…]) activity was determined according to the method of Okamura et al. [K. Okamura, M. Muramatsu and B. Fujii, Biochem. Biophys.
# Thrombin = Thrombin (Homo sapiens, UniProt P00734); test: biochemical; settings: read-out: ID50, thrombin
# Plasmin = Plasmin (Homo sapiens, UniProt P00747); test: Anti-plasmin activity (inhibition of TAME hydrolysis); format: biochemical; settings: read-out: ID50, plasmin
# Experimental: as §1
# complement = test: Inhibition of complement mediated hemolysis; format: cell-based
# Cls = molecular target: T3, Cls (Homo sapiens, UniProt P09871); test: Anti-Cl esterase activity, Cls (ATEE hydrolysis); format: biochemical; settings: hydrolysis of ATEE; read-out: Anti-Cl activity, Cls (50% inhibition)
# T3 sequence (P09871 438-688 limits assumed): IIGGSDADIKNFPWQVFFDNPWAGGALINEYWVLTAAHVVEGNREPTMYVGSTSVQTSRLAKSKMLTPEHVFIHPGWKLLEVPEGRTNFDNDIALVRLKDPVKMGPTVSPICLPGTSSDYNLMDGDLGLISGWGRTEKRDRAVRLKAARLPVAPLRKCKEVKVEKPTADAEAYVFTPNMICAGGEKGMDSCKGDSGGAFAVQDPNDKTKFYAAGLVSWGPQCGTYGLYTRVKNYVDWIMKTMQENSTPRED
# T3 sequence (P09871 16-437 limits assumed): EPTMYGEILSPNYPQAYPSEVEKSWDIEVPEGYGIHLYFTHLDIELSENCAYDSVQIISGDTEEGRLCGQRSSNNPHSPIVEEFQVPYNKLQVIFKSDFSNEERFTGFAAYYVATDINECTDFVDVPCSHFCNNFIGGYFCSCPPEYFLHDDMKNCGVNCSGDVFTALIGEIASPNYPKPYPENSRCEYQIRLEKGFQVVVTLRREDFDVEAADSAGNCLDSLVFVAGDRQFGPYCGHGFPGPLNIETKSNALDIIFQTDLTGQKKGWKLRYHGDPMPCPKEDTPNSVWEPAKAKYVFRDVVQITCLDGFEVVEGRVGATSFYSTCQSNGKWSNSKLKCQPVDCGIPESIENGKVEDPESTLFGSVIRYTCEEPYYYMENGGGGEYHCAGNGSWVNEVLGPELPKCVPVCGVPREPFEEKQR
# Experimental: The anti-Cl esterase (Clr, Cls) activity was determined according to the method of Okamura et al. [K. Okamura, M. Muramatsu and B. Fujii, Biochem. Biophys. […] The figures in Table 2 have the following meanings:
# Cls: Molar concentration of the test compound which inhibits 50% of the ability of Cls to hydrolyse ATEE (acetyltyrosin ethyl ester).
# Chain of Plasmin (P00747 581-810 limits assumed, species assumed): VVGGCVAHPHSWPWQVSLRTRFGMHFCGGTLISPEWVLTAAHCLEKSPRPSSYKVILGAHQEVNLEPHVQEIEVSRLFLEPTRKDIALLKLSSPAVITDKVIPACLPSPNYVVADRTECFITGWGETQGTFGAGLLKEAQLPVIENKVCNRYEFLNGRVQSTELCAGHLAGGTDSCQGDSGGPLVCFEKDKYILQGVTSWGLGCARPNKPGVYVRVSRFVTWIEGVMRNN
# Chain of Plasmin (P00747 97-580 limits assumed, species assumed): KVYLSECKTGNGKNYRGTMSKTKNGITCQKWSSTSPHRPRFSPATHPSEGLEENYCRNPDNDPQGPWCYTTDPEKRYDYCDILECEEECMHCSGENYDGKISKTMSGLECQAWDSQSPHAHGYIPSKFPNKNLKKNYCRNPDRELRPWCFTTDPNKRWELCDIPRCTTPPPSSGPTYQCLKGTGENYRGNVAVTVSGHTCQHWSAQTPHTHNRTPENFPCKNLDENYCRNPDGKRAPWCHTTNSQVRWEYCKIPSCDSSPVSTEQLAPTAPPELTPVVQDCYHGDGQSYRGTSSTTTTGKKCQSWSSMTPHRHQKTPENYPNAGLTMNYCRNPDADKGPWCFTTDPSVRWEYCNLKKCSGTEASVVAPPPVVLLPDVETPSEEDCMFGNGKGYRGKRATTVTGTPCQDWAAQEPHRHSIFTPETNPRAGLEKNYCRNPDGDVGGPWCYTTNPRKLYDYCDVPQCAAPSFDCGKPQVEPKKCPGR
SMILES,IC50 (Trypsin) [µM],IC50 (Kallikrein) [µM],IC50 (Clr) [µM],IC50 (Thrombin; TAME hydrolysis) [µM],IC50 (Plasmin) [µM],Inhibition of complement mediated hemolysis (%) (complement; compound at 1 × 10^-4),Inhibition of complement mediated hemolysis (%) (complement; compound at 1 × 10^-5),Inhibition of complement mediated hemolysis (%) (complement; compound at 1 × 10^-6),Inhibition of complement mediated hemolysis (%) (complement; compound at 1 × 10^-7),IC50 (Cls) [µM],IC50 (Thrombin) [µM]
"COC(=O)c1cc(C(=N)N)ccc1OC(=O)[C@H]1CC[C@H](CN)CC1 [Compound 19, 4-amidino-2-methyoxycarbonylphenyl trans-4-aminomethylcyclohexanecarboxylate]",> 10,> 10,> 10,> 10,> 10,99.2,83.4,15.0,5.0,> 10,–
N=C(N)c1ccc(OC(=O)[C@H]2CC[C@H](CNC(=O)OCc3ccccc3)CC2)c(C(=O)c2ccccc2)c1 [Compound 20],1,0.6,> 10,0.5,0.6,96.8,80.3,13.0,1.8,0.3,–
COc1cc(C(=N)N)ccc1OC(=O)[C@H]1CC[C@H](CN)CC1 [Compound 17],> 10,> 10,> 10,> 10,> 10,98.6,78.2,20.4,0,> 10,–
"COc1cc(C(=N)N)ccc1OC(=O)c1ccc(CN)cc1 [Compound 58, 4-amidino-2-methoxyphenyl 4-aminomethylbenzoate]",8,2,> 10,> 10,8,93.4,20.0,3.0,0,4,–
N=C(N)c1ccc(OC(=O)[C@H]2CC[C@H](CN)CC2)c(C(=O)c2ccccc2)c1 [Compound 21],> 10,> 10,> 10,> 10,> 10,99.3,99.9,60.2,10.9,4,–
COC(=O)c1cc(C(=N)N)ccc1OC(=O)c1ccc(CN)cc1 [Compound 60],1,2,3,> 10,4,100,100,89.8,44.4,0.8,–
"N=C(N)c1ccc(OC(=O)c2ccc(OCc3ccccc3)cc2)c(C(=O)c2ccccc2)c1 [Compound 45, 4-amidino-2-benzoylphenyl 4-benzyloxybenzoate]",0.02,0.4,0.9,0.2,0.3,0,90.2,6.0,0,0.4,–
CC(C)(C)c1ccc(C(=O)Oc2ccc(C(=N)N)cc2[N+](=O)[O-])cc1 [Compound 38],0.02,1,0.3,0.2,0.4,98.6,100,96.1,37.2,0.3,–
"Cc1cc(OC(=O)c2ccccc2)ccc1C(=N)N [Compound 22, 4-amidino-3-methylphenyl benzoate]",> 10,> 10,6,2,> 10,22.8,0,0,0,> 10,–
CC=CC=CC(=O)Oc1ccc(C(=N)N)cc1C(=O)OC [Compound 5],0.7,1,5,2,0.3,100,97.0,47.2,3.0,0.9,–
N=C(N)c1ccc(OC(=O)C=Cc2ccccc2)c([N+](=O)[O-])c1 [Compound 34],4,> 10,3,–,4,99.6,96.7,53.7,12.4,3,3
CCCCOc1ccc(C(=O)Oc2ccc(C(=N)N)cc2[N+](=O)[O-])cc1 [Compound 44],0.02,0.3,4,2,3,99.1,94.1,29.0,29.2,0.6,–
"CN(C)c1ccc(C(=O)Oc2ccc(C(=N)N)cc2C(=O)c2ccccc2)cc1 [Compound 66, 4-amidino-2-benzoylphenyl 4-dimethylaminobenzoate]",0.01,0.2,3,0.2,0.4,99.1,96.4,41.7,0,0.04,–
"N=C(N)c1ccc(OC(=O)c2ccccc2)c(S(=O)(=O)O)c1 [Compound 28, 5-amidino-2-benzoyloxybenzenesulfonic acid]",10,> 10,> 10,3,7,79.1,25.0,22.8,23.8,3,–
